# Patent US4737519A, “Substituted naphthalenes, indoles, benzofurans, and benzothiophenes as lipoxygenase inhibitors” (The Upjohn Company, priority 1986, dated 1988)
# Legend:
# mucus release = settings: in vivo in the cat; cited from earlier work
# human airways = settings: in vitro; cited from earlier work
# canine tracheas = settings: in vivo; cited from earlier work
# trachealis muscle = test: isometric tension of the trachealis muscle in dogs; assay type: in vivo, mongrel dogs; settings: 1.0 mg in the CTA
# Procedure: (§1) Isometric tension measurements of the trachealis muscle were recorded by suturing a rigid, plastic bar to the (15) cartilaginous rings of the cut edges of the trachea, and connecting one side to a fixed restraint and the contralateral side to a force displacement transducer (Grass, Model FT 03C). An initial tension of 25-30 g/cm of trachea was applied to the muscle, and it was allowed to stabilize for 45 min. An initial zero tension point was determined before agonists were injected into the CTA, and the zero was readjusted after agonist injections.
# When drug activity was assessed with arachidonic acid induced secretion, the animals were pretreated with indomethacin (Indo) (5 mg/kg) for at least 30 minutes. Before any drugs were given, however, the appropriate controls for arachidonate and indomethacin were run. The standard procedure for this was to determine the effect of (1) arachidonate alone, (2) indomethacin alone, and (3) indomethacin/arachidonate combination on normal baseline secretion. Once these control values were acquired, the drug was given. An experimental drug given in the presence of the indomethacin/arachidonate combination helps to characterize that portion of the response due to lipoxygenase products. […] Hillocks were counted for 2-3 minutes immediately after the arachidonate was given.
# mucous secretion = test: canine tracheal mucous secretion (hillock count); assay type: in vivo, mongrel dogs; settings: 1.0 mg in the CTA
# Procedure: Mongrel dogs (weight 18-35 kg) were anesthetized with a mixture of chloralose (100 mg/kg) and urethane (500 mg/kg) via intravenous injection. The animals were secured to a surgery table, ventral side up, and the neck and inner right hind limb were shaved. A ventral midline incision was made in the neck using a Bovie CSVII electrosurgical unit, starting from the papillae (interramal) to the clavicle thus exposing the trachea. An endotracheal tube was secured into the lower trachea. The animals were then connected via the endotracheal tube to a Harvard respirator (Model 607A) that delivered room air at a constant tidal volume and frequency. Two polyethylene catheters were connected to the endotracheal tube, and one was connected to a medical gas analyzer (Beckman, Model LB-2) that continuously measured the carbon dioxide (CO2) content of the expired air for determination of end tidal CO2. The other was connected to a pressure transducer (Statham, Model PMI 131TC+2.5-350) for the measurement of airway press ure.
# A second incision made in the inner right hind limb to expose the femoral artery and vein was made for the catheterization of these large vessels. A polyethylene catheter was tied into the artery and connected to a pressure transducer (Statham, Model P231D) for the measurement of blood pressure. This catheter also allowed for samples of arterial blood to be collected for measurements of blood gas tension using a blood gas analyser (Corning, Model 175). Another polyethylene catheter was tied into the femoral vein which was used for injecting additional anesthetic and paralyzing drugs. Gallamine triethiodide (20-40 mg) was used to paralyze the respiratory muscles and a single injection of sodium bicarbonate 7.5% (0.5 mg/kg) in conjunction with a continuous i.v. drip of 5% dextrose in 0.9% saline helped to maintain fluid balance. All physiological measurements were recorded and monitored on a polygraph (Grass instruments, Model 7D). Once the femoral cutdown was completed, surgery on the neck region resumed. The carotid artery was exposed and the "knuckle" (a portion of the carotid which bisects to supply blood flow to the trachea and neck muscles) was located. A small polyethylene catheter was then inserted into the muscular branch of the cranial thyroid artery (CTA). This allowed for close arterial injection of experimental agents. The strap muscles were removed and the mucosal surface of the trachea exposed by cutting along the anterior midline of the upper two-thirds of the extrathoracic trachea and pulling the cut edges widely apart. The exposed mucosa was checked for proper canulation by blanching and appropriate adjustments of the canula into the CTA were made until blanching was achieved.
# as §1
# To visualize secretions coming from the submucosal gland duct openings of the trachea, powdered tantalum, an inert metal (2-5 microns in size) was sprayed on the trachea until it formed a uniform layer over the mucosal surface. The tantalum itself did nothing to normal secretion, but prevented the normal ciliary dispersion of secretions from the gland duct openings; these secretions, therefore, caused elevations ("hillocks") in the tantalum layer. The number of hillocks formed in a 1.2 cm^2 field, 1-2 cm from the larynx, were counted and their images were recorded with a video camera (Hitachi CCTV, Model HV-17TU) mounted on a dissecting microscrope (Zeiss Ompi-1) with a beam splitter. […]
SMILES,stimulating mucus release (mucus release),release of mucus from human airways (human airways),release of mucus from canine tracheas (canine tracheas),effect on the trachealis muscle (trachealis muscle),effect on mucus secretion (mucous secretion)
"CCCCC/C=C\C\C=C/C=C/C=C/[C@@H](SC[C@H](NC(=O)CC[C@H](N)C(=O)O)C(=O)NCC(=O)O)[C@@H](O)CCCC(=O)O [LTC4, leukotriene C4]",effective in stimulating mucus release in vivo in the cat,increase the release of mucus,increase the release of mucus,–,–
"CCCCC/C=C\C/C=C\C/C=C\C/C=C\CCCC(=O)O [arachidonate, arachidonic acid]",–,release mucus from human airway,–,slight stimulation followed by relaxation of the trachealis muscle,stimulates mucus secretion
